Target: T1, Human MTHFD2 (Homo sapiens, UniProt P13995)
T1 construct: residues 36-350 in Uniport ID P13995; His6 (N); made in house; host or cells: E. coli
T1 sequence (P13995 36-350): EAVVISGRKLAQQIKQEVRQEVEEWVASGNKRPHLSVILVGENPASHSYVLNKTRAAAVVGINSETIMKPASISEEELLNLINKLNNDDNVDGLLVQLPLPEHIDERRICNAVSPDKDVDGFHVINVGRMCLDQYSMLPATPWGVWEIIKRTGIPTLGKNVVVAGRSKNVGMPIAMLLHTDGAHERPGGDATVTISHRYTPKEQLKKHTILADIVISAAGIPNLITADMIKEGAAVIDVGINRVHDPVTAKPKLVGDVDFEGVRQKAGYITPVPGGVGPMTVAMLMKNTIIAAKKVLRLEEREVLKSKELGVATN
Assay: MTHFD2 Activity Assay (dehydrogenase activity, diaphorase/resazurin coupled fluorescence)
Type: biochemical
Conditions: inhibitory activity (IC50 and/or binding constant); 0.2 nM MTHFD2, 11 concentrations
Procedure, shortened: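 Resorufin fluorescence (ex 525, em 598 nm) reports NADH formed by the dehydrogenase via diaphorase coupling. Enzyme (0.2 nM, residues 36-350, N-His6) sat with compound 15 min before 70 μM CH2-THF and 1 mM NAD+ started a 30 min reaction. IC50s come from 4-parameter fits over 11 concentrations.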

Structure (SMILES)	IC50 [µM]
CCOC(=O)Cn1c(=O)n(Cc2ccc(Cl)c(Cl)c2)c(=O)c2c1nc(NCCCO)n2C [Example 98, Ethyl 2-(1-(3,4-dichlorobenzyl)-8-((3-hydroxypropyl)amino)-7-methyl-2,6-dioxo-1,2,6,7-tetrahydro-3H-purin-3-yl)acetate]	5 to 10
Cn1c(CC(=O)O)nc2c1c(=O)n(Cc1ccc(Cl)c(Cl)c1)c(=O)n2C [Example 101, 2-(1-(3,4-dichlorobenzyl)-3,7-dimethyl-2,6-dioxo-2,3,6,7-tetrahydro-1H-purin-8-yl)acetic acid]	5 to 10
Cn1c(NCCS(N)(=O)=O)nc2c1c(=O)n(Cc1ccc(Cl)c(Cl)c1)c(=O)n2C [Example 102, 2-(1-(3,4-dichlorobenzyl)-3,7-dimethyl-2,6-dioxo-2,3,6,7-tetrahydro-1H-purin-8-ylamino)ethanesulfonamide]	5 to 10
Cn1c(NC[C@@H]2CCCO2)nc2c1c(=O)n(Cc1ccc(Cl)c(Cl)c1)c(=O)n2C [Example 104, (S)-1-(3,4-dichlorobenzyl)-3,7-dimethyl-8-((tetrahydrofuran-2-yl)methylamino)-1H-purine-2,6(3H,7H)-dione]	1 to 5
Cn1c(NC[C@@H]2CCCO2)nc2c1c(=O)n(Cc1ccc(C(F)(F)F)cc1)c(=O)n2C [Example 105, (S)-3,7-dimethyl-8-((tetrahydrofuran-2-yl)methylamino)-1-(4-(trifluoromethyl)benzyl)-1H-purine-2,6(3H,7H)-dione]	> 10
Cn1c(NCC2(O)CCCCC2)nc2c1c(=O)n(Cc1ccc(Cl)c(Cl)c1)c(=O)n2C [Example 106, 1-(3,4-dichlorobenzyl)-8-((1-hydroxycyclohexyl)methylamino)-3,7-dimethyl-1H-purine-2,6(3H,7H)-dione]	1 to 5
Cn1c(NCC2(O)CCCCC2)nc2c1c(=O)n(Cc1ccc(C(F)(F)F)cc1)c(=O)n2C [Example 107, 8-((1-hydroxycyclohexyl)methylamino)-3,7-dimethyl-1-(4-(trifluoromethyl)benzyl)-1H-purine-2,6(3H,7H)-dione]	> 10
Cn1c(N[C@@H]2CCCC[C@H]2O)nc2c1c(=O)n(Cc1ccc(Cl)c(Cl)c1)c(=O)n2C [Example 108, 1-(3,4-dichlorobenzyl)-8-((1R,2R)-2-hydroxycyclohexylamino)-3,7-dimethyl-1H-purine-2,6(3H,7H)-dione]	1 to 5

Continued, values first:

IC50 [µM]	Structure (SMILES)
1 to 5	COc1cc(Cn2c(=O)c3c(nc(NCCCO)n3C)n(C)c2=O)ccc1Cl [Example 96, 1-[(4-chloro-3-methoxyphenyl)methyl]-8-[(3-hydroxypropyl)amino]-3,7-dimethyl-2,3,6,7-tetrahydro-1H-purine-2,6-dione]
1 to 5	Cn1c(NCCCO)nc2[nH]c(=O)n(Cc3ccc(Cl)c(Cl)c3)c(=O)c21 [Example 97, 1-[(3,4-dichlorophenyl)methyl]-8-[(3-hydroxypropyl)amino]-7-methyl-2,3,6,7-tetrahydro-1H-purine-2,6-dione]
1 to 5	Cn1c(N[C@H]2CC[C@@H](O)C2)nc2c1c(=O)n(Cc1nc3ccccc3[nH]1)c(=O)n2C [Example 99, 1-((1H-benzo[d]imidazol-2-yl)methyl)-8-((1S,3R)-3-hydroxycyclopentylamino)-3,7-dimethyl-1H-purine-2,6(3H,7H)-dione]
1 to 5	Cn1c(CO)nc2c1c(=O)n(Cc1ccc(Cl)c(Cl)c1)c(=O)n2C [Example 100, 1-(3,4-dichlorobenzyl)-8-(hydroxymethyl)-3,7-dimethyl-1H-purine-2,6(3H,7H)-dione]
1 to 5	COc1cc(Cn2c(=O)c3c(nc(N[C@@H]4CCC[C@H]4O)n3C)n(C)c2=O)ccc1Cl [Example 103, 1-[(4-chloro-3-methoxyphenyl)methyl]-8-{[(1R,2R)-2-hydroxycyclopentyl]amino}-3,7-dimethyl-2,3,6,7-tetrahydro-1H-purine-2,6-dione]
0.01 to 1	Cn1c(Nc2ccc3c(c2)NC(=O)CCC3)nc2c1c(=O)n(Cc1ccc(Cl)c(Cl)c1)c(=O)n2C [Example 109, 1-(3,4-dichlorobenzyl)-3,7-dimethyl-8-(2-oxo-2,3,4,5-tetrahydro-1H-benzo[b]azepin-8-ylamino)-1H-purine-2,6(3H,7H)-dione]

From patent US12187728B2 (Raze Therapeutics, Inc., priority 2015, dated 2025)
